Experiments:
[1] = target: BTK (Homo sapiens, UniProt Q06187); test: Phospho-BTK (pBTK) test in basophils, whole blood; assay type: cell-based; set-up: Human mast cells were differentiated from bone marrow CD34+ cells from six healthy donors; endogenous in cells; host or cells: human mast cells differentiated from bone marrow CD34+ cells of healthy donors, cultured with SCF; conditions: 24 hours exposure, CCR3+ basophils, anti-FcεR stimulation; read-out: average EC50 (n=4), pBTK (Y223) normalized to DMSO control
Protocol: Blood from four healthy donors was drawn and Compound 128 was added at various concentrations (10 µM, 3.16 μM, 1 μM, 0.3 μM, 0.1 μM, 0.03 μM, or 0 μM). Blood samples were gently rocked at room temperature for 24 hours. The pBTK test was then conducted by (1) stimulating the blood with anti-FcεR stimulation control from Flow Cast Basophil Activation Kit and staining cells for CCR3 (Becton Dickinson) and a near-IR dead cell stain (nIR; Invitrogen) for 15 minutes at 37° C., (2) lysing red blood cells and fixing cells with Phosflow Lyse/Fix Buffer (Becton Dickinson) at 37° C. for 10 minutes, (3) washing once with 1× phosphate-buffered saline (PBS), (4) washing twice with Perm/Wash buffer (Becton Dickinson), (5) permeabilizing cells with Perm/Wash buffer on ice for 15 minutes, (6) staining cells for rabbit anti-human pBTK (Abcam) for 30 minutes on ice, (7) washing twice with Perm/Wash buffer, (8) staining with goat anti-rabbit secondary antibody (Invitrogen) for 30 minutes on ice, (9) washing twice with Perm/Wash buffer, and (10) acquiring data on a flow cytometer. Live basophils were defined as nIR−, CCR3+ and low side scatter. The median fluorescence intensity of phosphorylated BTK was measured and percent of stimulated control was calculated. […] The percent of stimulated control of activated mast cells (CD63+) was calculated. […]

[2] = test system: basophils; test: Anti-IgE induced IL-4 production from basophils in whole blood; assay type: cell-based, human; conditions: whole blood from a healthy donor, two hours treatment, anti-IgE six hours
Protocol: Human mast cells lines, ROSA with wildtype KIT and ROSA […] with D816V KIT mutation (ISM-like cells), were licensed from CRNS Innovation and cultured with or without stem cell factor (100 ng/ml), respectively (FIG. 12A). ROSA cells were stimulated with IL-4 (20 ng/ml; R&D Systems) for 18 hours, stained for FcεRIα (Becton Dickinson) for 30 minutes on ice, washed twice with FACS buffer and data was acquired on a flow cytometer. The median fluorescence intensity of FcεRIα was measured. […] Whole blood from a healthy donor was treated with Compound 128 for two hours and the basophils were stimulated with anti-IgE (1 μg/mL; Beckman Coulter) for six hours (FIG. 12B). Plasma was collected and IL-4 levels were measured using the BD CBA human soluble protein master buffer kit and BD CBA human soluble protein flex set for IL-4 (Becton Dickinson). A four-parameter logistic regression analysis was performed on the cytokine levels to determine the EC50 and EC90. […] Therefore, Compound 128 may indirectly effect FcεRI expression by the reduction of IL-4 levels.

[3] = test system: human mast cells; test: Calcium flux assay in antigen-stimulated human mast cells; assay type: cell-based; conditions: 2 hours treatment, NP-BSA stimulation
Protocol: Human mast cells were derived from bone marrow CD34+ cells from six healthy donors for up to eight weeks by culturing CD34+ cells in StemSpan SFEM II (Stem Cell Technologies) supplemented with stem cell factor (SCF; 100 ng/mL; R&D System), IL-6 (R&D Systems), IL-3 (R&D Systems) and 1% penicillin/streptomycin (P/S; Gibco) for the first 10 days and in StemSpan SFEM II supplemented with SCF and IL-6 and 1% P/S for the remaining time in culture. […] Supernatant was collected and histamine levels were measured using a Histamine ELISA kit (Eagle Biosciences). […] Percent of activated mast cells was calculated as number of activated mast cells over the total number of mast cells.
Compound 128 Inhibits Calcium Signaling in Human Mast Cells. […] The median fluorescence intensity of cytosolic calcium was measured across the stimulation time period and graphed to represent the calcium influx profile. The area under the curve (AUC) of the calcium influx profile was calculated and normalized as a percent of stimulated control. […]

BTK, sequence (Q06187 whole entry): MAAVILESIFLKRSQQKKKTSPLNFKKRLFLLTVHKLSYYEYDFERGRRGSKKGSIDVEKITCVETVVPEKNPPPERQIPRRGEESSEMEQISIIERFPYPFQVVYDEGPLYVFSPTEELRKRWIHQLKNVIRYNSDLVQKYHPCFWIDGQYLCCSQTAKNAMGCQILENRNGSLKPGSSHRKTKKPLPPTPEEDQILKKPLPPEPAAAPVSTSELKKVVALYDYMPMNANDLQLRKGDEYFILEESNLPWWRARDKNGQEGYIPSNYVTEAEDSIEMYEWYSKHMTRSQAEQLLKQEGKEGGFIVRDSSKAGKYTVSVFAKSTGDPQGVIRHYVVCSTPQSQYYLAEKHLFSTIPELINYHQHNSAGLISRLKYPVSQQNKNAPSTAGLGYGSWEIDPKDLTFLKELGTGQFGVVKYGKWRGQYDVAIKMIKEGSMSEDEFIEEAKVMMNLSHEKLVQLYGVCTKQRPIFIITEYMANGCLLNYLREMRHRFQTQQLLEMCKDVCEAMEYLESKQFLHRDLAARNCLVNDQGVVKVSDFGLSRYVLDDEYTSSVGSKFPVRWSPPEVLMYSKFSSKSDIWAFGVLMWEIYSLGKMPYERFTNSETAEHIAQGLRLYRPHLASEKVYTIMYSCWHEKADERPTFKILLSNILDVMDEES

EC50 [1]: 0.13 µM
SMILES: C=CC(=O)N1CCC(F)(CNc2ncnc(N)c2-c2ccc(Oc3ccccc3)cc2)CC1 [Compound 128, 1-(4-(((6-amino-5-(4-phenoxyphenyl)pyrimidin-4-yl)amino)methyl)-4-fluoropiperidin-1-yl)prop-2-en-1-one]
IgE-mediated IL-4 production [2]: potently inhibited | calcium influx, percent of stimulated control ([3]; ISM-like (+SCF) mast cells): less than 7% | calcium influx, percent of stimulated control ([3]; healthy (−SCF) mast cells): < 3%

From patent US20250360130A1, “METHODS OF TREATING INDOLENT SYSTEMIC MASTOCYTOSIS” (Telios Pharma Inc., priority 2024, published 2025)
